This is an account of results in patent US10780096B2, “Pyrrolobenzodiazepine-antibody conjugates” (priority 2014, dated 2020).

The test system of one series is L540. Briefly: MTS cell proliferation assay, in vitro cytotoxicity. Type of series: cell-based. To be noted: L540, Hodgkin's lymphoma, CD25 expressing, 96 hours. As to the method:
(§1) FIG. 2. In vitro cytotoxicity of ADCT-301 on six lymphoma cell lines as measured by the MTS cell proliferation assay. Cells were incubated with increasing concentrations of ADCT-301 for 96 hours. Data is presented as the mean±SD
(§2) Cell surface protein copy number of CD25 and CD30 was determined on various lymphoma cell lines by flow cytometric Qifikit® assay. Cytotoxicity of ADCT-301 on these cell lines was determined by cell proliferation assay (MTS) to determine whether there is a correlation between CD25 copy number and in vitro cytotoxic potency.

A further series relates to HuT 78. The series is described as above. To be noted: HuT 78, cutaneous T cell lymphoma, CD25 negative, 96 hours. Type of series: cell-based. As to the method:
as §1, §2

Another series concerns SU-DHL-1. The series is described as above. Type of series: cell-based. The following applies: SU-DHL-1, anaplastic large cell lymphoma, CD25 expressing, 96 hours. As to the method: as §1, §2
Another series concerns Karpas 299. The series is described as above. Type of series: cell-based. To be noted: Karpas 299, anaplastic large cell lymphoma, CD25 expressing, 96 hours. As to the method: as §1, §2
In the next series the test system is HDLM-2. The description is as above. Type of series: cell-based. To be noted: HDLM-2, Hodgkin's lymphoma, CD25 expressing, 96 hours. As to the method: as §1, §2
The subject of a further series is Daudi. The series is described as above. Type of series: cell-based. The following applies: Burkitt's lymphoma, CD25 negative, 96 hours. Here is the method:
as §1, §2

Series [1] concerns CD25-negative Ramos cells. The following applies: second culture 96 hrs. As to the method: FIG. 5. […] Data is presented as the mean±SD.
In these experiments, an first 48 hr culture of either (A) CD25-negative cells Ramos cells, or (B) CD25-positive Karpas 299, with ADCT-301 was performed. When this first culture was complete, the culture was centrifuged and 50 μl of the supernatant media transferred to 50 μl of a freshly prepared culture of either (A) CD25-negative cells Ramos cells, or (B) CD25-positive Karpas 299. This second culture was performed for 96 hrs, then cytotoxicity assessed by the MTS assay.

Series [2] deals with CD25-positive SuDHL-1 cells. Nature of the series: Cytotoxicity on CD25-positive SuDHL-1 cells, cleavable vs non-cleavable linker. To be noted: direct treatment of CD25-positive SuDHL-1 cells. Type of series: cell-based.
Series [3] concerns CD25-negative Ramos cells. Nature of the series: Bystander effect in co-culture of Karpas 299 and Ramos cells, flow cytometry. Type of series: cell-based, human. To be noted: 96 hour exposure, co-culture with CD25-positive Karpas 299, compared to Ramos cultured alone. Here is the method:
FIG. 3. […] The histogram depicts the percentage of viable populations of cells as measured by flow cytometry.
Readout was Karpas 299 and Ramos cell numbers and the viability of these cells both of which were determined by flow cytometry.
Ramos cells are human B lymphocytes of Burkitt's lymphoma.

A further series deals with T1, human CD25 (Homo sapiens, UniProt P01589).
T1 construct: endogenous in cells
T1 sequence (P01589 22-272): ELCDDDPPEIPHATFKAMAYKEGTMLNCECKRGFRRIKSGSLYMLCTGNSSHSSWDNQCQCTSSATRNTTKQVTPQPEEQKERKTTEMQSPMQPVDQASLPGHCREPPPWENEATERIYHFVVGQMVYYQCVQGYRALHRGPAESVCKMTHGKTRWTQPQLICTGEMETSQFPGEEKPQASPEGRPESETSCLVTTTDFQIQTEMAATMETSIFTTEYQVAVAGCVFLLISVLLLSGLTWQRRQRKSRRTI
Nature of the series: Flow cytometry binding of ADCT-301-FITC on concanavalin-A activated CD25-positive human PBMCs. To be noted: CD25-PE gate. Here is the method: FIG. 1. Affinity of ADCT-301 for human CD25 as determined by flow cytometry on concanavalin-A activated CD25-positive human PBMCs. ADCT-301-FITC binding was assessed in a CD25-PE (phycoerythrin) gate across the dilution series by measuring median fluorescent intensity (MFI) in channel FL1H. Isotype, non-targeting-ADC-FITC was used as the non-binding ADC control.
Relative binding affinity of ADCT-301 was measured by flow cytometry on Concanavalin A-activated CD25-positive lymphocytes. Surface plasmon resonance (SPR, Biacore) was used to measure binding affinity and binding kinetics of HuMax®-TAC and ADCT-301 on recombinant sCD25 ectodomain attached to a gold surface.

For series [4], the system named is CD25-negative Burkitt lymphoma Ramos cells. Nature of the series: Conditioned media transfer from SuDHL-1 culture to Ramos cells, MTS assay. The following applies: media conditioned by 48 hr culture of CD25-positive SuDHL-1 cells; second culture 96 hrs. In kind it is cell-based, human. As to the method:
FIG. 6. Comparison of CD25−ve bystander cytotoxicity observed with cleavable vs. non-cleavable linkers by in vitro conditioned media transfer. […] The error bars indicate % cell viability±SD of 3 independent repeats
The effect of linker cleavablility was investigated in conditioned media transfer experiments. In these experiments, a first 48 hr culture CD25-positive SuDHL-1 cells was performed with either (1) of ADCT-301 (cleavable linker), or (2)NC-1 (composed of the recombinant human IgG1, HuMax®-TAC against human CD25 attached to a pyrrolobenzodiazepine PBD warhead with non-cleavable linker according to the alternative aspect of the disclosure).

Like-named read-outs stand apart in the source and are kept apart here.

With “ADCT-301: recombinant human IgG1, HuMax-TAC against human CD25 attached to a pyrrolobenzodiazepine PBD warhead, cleavable linker; drug-antibody ratio 2.3±0.3; HuMax-TAC-E of WO2014/57119”, the GI50 was 0.0216 nM in the series with L540; more than 10 nM in the series with HuT 78; 0.0165 nM in the series on SU-DHL-1; 0.0365 nM in the series on Karpas 299; 0.0511 nM in the series on HDLM-2; more than 10 nM in the series on Daudi. For the same substance, the “Mean GI50” value is 3.25 ng/mL in the series on L540; >>150 ng/ml in the series on HuT 78; 2.48 ng/mL with SU-DHL-1; 5.47 ng/mL with Karpas 299; 7.67 ng/mL in the series with HDLM-2; >>150 ng/ml in the series with Daudi. The “Cytotoxicity to Ramos cells of conditioned media” value in series [1] (media conditioned by 48 hr culture of CD25+ve Karpas299 cells) was “potent cytotoxicity”; in [1] (media conditioned by 48 hr culture of CD25-ve Ramos cells), “does not lead to any observable increase in cytoxicity”; in [4], “shows cytotoxicity of CD25-negative Burkitt lymphoma Ramos cells”. Moreover, the “Sensitivity of SuDHL-1 cells to treatment” value in [2] was “equally sensitive”. For the same substance, the “Bystander killing of Ramos cells in co-culture” value in series [3] was “specific bystander killing of Ramos cells”. In addition, the “EC50 (affinity for human CD25, median fluorescent intensity)” value with human CD25 was “≈ 0.03 μg/ml”.
